From patent US20250120975A1, “INTEGRIN INHIBITORS FOR TREATMENT OF PRIMARY SCLEROSING CHOLANGITIS” (Pliant Therapeutics, Inc., priority 2023, published 2025) come the findings set out here.

This experiment concerns PCLivS from human liver tissue with biliary fibrosis (PSC, PBC). The experiment is described as follows: Fibrotic gene expression (NanoString) in precision cut liver slices. It is filed as cell-based. The settings on record: PCLivS from a single PSC liver, 2 days. The text has this: A human liver tissue explant was obtained from a PSC patient undergoing liver transplantation.
Slicing: To slice, 8-mm cores were punctured from the liver tissue and were stored in ice cold UW solution until slicing. A tissue core was glued onto the center of the plunger of the specimen syringe for slicing. The core was embedded in 2% low gelling temperature agarose made up in milliQ water. The thickness of the slice was adjusted to 400 μm and was sectioned into oxygenated KHB occurs. The slices were stored in cold UW solution on ice until all slices were cut.
Culture: The compounds were diluted to 1000× concentration in 100% DMSO. The compounds were diluted in a medium with a final concentration of 0.1% DMSO before transferring the slices and making a fresh medium for each 24-H medium change. Before being used for slice culture, all media was equilibrated in the incubator at culture conditions for 30 minutes. After all slices have been cut, all slices were transferred to wells prefilled with oxygenated, warmed, and equilibrated WEGG. The slices were incubated for 1 hour in the incubator at a temperature of 37° C., 5% CO2, 80% 02, 100% humidity on shaking platform set at 55 rpm. After this one-hour recovery, the slices were transferred to wells prefilled with oxygenated, warmed, and equilibrated WEGG with appropriate treatments. The slices were distributed into the treatment groups to account for inter-core variability. The slices were cultured at 37° C., 80% 02, 5% CO2, 100% humidity on shaking platform set at 55 rpm. The medium was changed after 24 hours.
The slices were removed from the well and rinsed in PBS. Excess liquid was removed. The slices were transferred to a microtube pooling all three slices from the same treatment into one tube. The pooled slices were snap frozen in liquid nitrogen and placed on dry ice until all samples were collected and then transferred to −80° C. for storage. For media collection, 140 μL of medium was pooled from each well within a treatment group and transferred to a 96-well Axygen plate. After sealing the plate, spin down occurred at 4000×g for 10 minutes at 4° C. Then, 130 μL aliquots were transferred into 3 new plates. The plates were sealed and stored at −80° C.
(S)-4-((2-methoxyethyl)(4-(5,6,7,8-tetrahydro-1,8-naphthyridin-2-yl)butyl)amino)-2-(quinazolin-4-ylamino)butanoic acid was tested at 100 nM, 1 μM, and 10 μM. OCA, an FXR agonist in clinical trials for PSC, was used at 250 nM and 2.5 μM reflecting Cmax levels observed in clinical trials. An ALK5 inhibitor (R268712) was used at 1 μM (400 times its IC50 per manufacturer) to target max inhibition of the ALK5 receptor.
Methods: Lysis buffer was made with one third RLT buffer in RNAse-free water and 2 mg/mL proteinase K. About 100-200 μL lysis buffer was added to each pool of 3 liver slices. Samples were incubated at 55° C. in the bead bath for 2 hours and 45 minutes, vortexing every 30 minute. Samples were centrifuged and the supernatant aliquoted in 15 μL aliquots into 96-well Axygen plates.
Methods: nCounter PlexSet was run according to standard protocol. Briefly, probe A and probe B were diluted with TE-tween to Working Probe Pools and mixed with hybridization buffer. This master mix was added to the A-H PlexSets and mixed. Each PlexSet was added across a row to a 96 well qPCR plate and proteinase K was added to a final concentration of 2 mg/mL. Lysate from samples was added to appropriate wells and mixed. The plate was sealed, spun, and placed in thermocycler at 67° C. for 16 hours. Hybridized samples were pooled down columns and 35 μL were loaded on a Sprint Cartridge and run on the nCounter Sprint. Data analysis was performed in nSolver using background thresholding based on negative controls, positive control normalization, reference sample normalization and normalization to housekeeping genes (GUSB, HPRT1, POLR1B, RPLP0, SRFS4, and/or UBC). […]

Turning to `Cc1cccc(-c2[nH]ncc2-c2ccc(F)c(-c3cnn(CCO)c3)c2)n1` [Alk5 Inh., reference compound], under “1 μM”, the “% Inhibition of expression COL1A1” value was found to be 79% and the “% Inhibition of expression COL1A2” value is 46%.

`CC[C@H]1[C@@H](O)[C@@H]2[C@H](CC[C@]3(C)[C@@H]([C@H](C)CCC(=O)O)CC[C@@H]23)[C@@]2(C)CC[C@@H](O)C[C@@H]12` [OCA, obeticholic acid, reference compound]: the “% Inhibition of expression COL1A1” value reads like this: (250 nM) 44%; (2.5 μM) 35%. Moreover, the “% Inhibition of expression COL1A2” value by setting is: (250 nM) 19%; (2.5 μM) 15%.
